In the test the target is T1, HIV-1 protease (Human immunodeficiency virus type 1 group M subtype B, UniProt P04585).
T1 construct: The protease (or proteinase) enzyme, consisting of only 99 amino acids
Put plainly: In vitro HIV protease inhibitory assay (fluorescently labeled substrate, avidin-polystyrene particles). Type of test: biochemical. Conditions: for inhibition at 3.3 µM: HIV-1 dose 3.3 μM; for inhibition at 10 µM: HIV-1 dose 10.0 μM; for inhibition at 30 µM: HIV-1 dose 30.0 μM. The protocol: The HIV protease screening assay is based on a fluorescently labeled substrate which can be resolved from nonlabeled cleavage product using avidin-polystyrene particles, 0.7-0.9 μm. The substrate is biotinylated at the amino terminal arginine and fluorescently labeled with fluorescein isothiocynate (FITC) at the carboxyl terminal lysine. This assay has been employed to detect novel, nonpeptidic inhibitors of HIV-1 protease. Substrate (20 μl of 0.2 μM), sample (10 μl of desired concentraion), and enzyme (10 μl of 0.1 μM) are added to a 96 well pandex plate. The assay is run in 0.1 M sodium acetate buffer at pH 5.5 in the presence of 1.0 M sodium chloride and 0.05% NP-40 and incubated in the dark for one hour at room temperature. Avidin coated polystyrene beads (40 μl of 0.1% (w/v)) are added and the incubation is continued in the dark for an additional half hour. The labeled cleavage product is separated from the unreacted substrate via filtration and is read on the IDEXX Screen Machine. (IDEXX Corporation--Portland, Me.) The data are analyzed by appropriate computer algorithms to ascertain percent inhibition values.
The Activity Table showing the results of the HIV Protease Inhibitory Assay appears below in TABLE 1. The table has three columns, the left column provides the code number of the compound for easy cross reference to structure tables and detailed procedures, the middle column provides the concentration of test compound and the column on the right provides the percent inhibition.

Each structure is given as a SMILES string.

As to `O=C1OC(CCCc2ccccc2)(CCc2ccccc2)C(O)=C1C(c1ccccc1)C1CC1` (stereo not drawn) [DX-18, 2(5H)-Furanone, 3-(cyclopropylphenylmethyl)-4-hydroxy-5-(2-phenyl-ethyl)-5-(3-phenylpropyl)-], the inhibition at 3.3 µM amounted to 113%, the inhibition at 10 µM turned out to be 114% and the inhibition at 30 µM amounted to 101%.
For `CCCC1(CCC)OC(=O)C(C(c2cccc(NS(=O)(=O)c3nnnn3-c3ccccc3)c2)C2CC2)=C1O` (stereo not drawn) [IX-50] the same measures were 108%, 104% and 106%.
For the compound `CCCC1(Cc2ccccc2)OC(=O)C(C(c2cccc(NS(=O)(=O)c3cn(C)cn3)c2)C(C)C)=C1O` (stereo not drawn) [IX-30], the inhibition at 3.3 µM was 97.1%, the inhibition at 10 µM came to 96.6% and the inhibition at 30 µM was determined as 94.3%.
`O=C1OC(Cc2ccccc2)(Cc2ccccc2)C(O)=C1C(c1cccc(NS(=O)(=O)c2ccc(F)cc2)c1)C1CC1` (stereo not drawn) [IX-44]: the inhibition at 3.3 µM was 90.3%, the inhibition at 10 µM worked out at 92.3% and the inhibition at 30 µM was 80.3%.
On to `CCCC1(CCC)OC(=O)C(C(c2cccc(NS(=O)(=O)c3ncc[nH]3)c2)C2CC2)=C1O` (stereo not drawn) [IX-36], for which the inhibition at 3.3 µM turned out to be 37%, the inhibition at 10 µM was 79.6% and the inhibition at 30 µM turned out to be 83%.
On to `CCCC1(Cc2ccccc2)OC(=O)C(C(c2cccc(NS(=O)(=O)c3ccc(C#N)cc3)c2)C(C)C)=C1O` (stereo not drawn) [IX-28], for which the inhibition at 3.3 µM is 123%, the inhibition at 10 µM turned out to be 118% and the inhibition at 30 µM turned out to be 125%.
For `N#Cc1ccc(S(=O)(=O)Nc2cccc(C(C3=C(O)C(Cc4ccccc4)(Cc4ccccc4)OC3=O)C3CC3)c2)cc1` (stereo not drawn) [IX-43] the same measures were 98.6%, 96.8% and 99.8%.
Take `CCCC1(CCC)OC(=O)C(C(Cc2ccccc2)c2cccc(NS(=O)(=O)c3cn(C)cn3)c2)=C1O` (stereo not drawn) [IX-40]: the inhibition at 3.3 µM came out at 90.8%, the inhibition at 10 µM came to 91.1% and the inhibition at 30 µM turned out to be 104%.
Regarding `CCCC1OC(=O)C(C(c2ccccc2)C2CC2)=C1O` (stereo not drawn) [BX-4, 2(5H)-Furanone, 3-(cyclopropylphenylmethyl)-4-hydroxy-5-propyl-], the inhibition at 10 µM came to 61.1%. For the same compound, the inhibition at 1 µM (HIV-1 dose 1.0 μM) is below 10%. Further, the inhibition at 100 µM (HIV-1 dose 100.0 μM) was 83.3%.
On to `CCCC1(CCC)OC(=O)C(C(c2cccc(NS(=O)(=O)c3nccn3C)c2)C2CC2)=C1O` (stereo not drawn) [IX-37, 1-Methyl-1H-imidazole-2-sulfonamide, N-(3-(cyclopropyl(2,5-dihydro-4-hydroxy-2-oxo-5,5-dipropyl-3-furanyl)methyl)phenyl)-], for which the inhibition at 3.3 µM stood at 99.2%, the inhibition at 10 µM amounted to 100% and the inhibition at 30 µM came out at 96.7%.
Consider `CCCC1(CCC)OC(=O)C(C(c2cccc(NS(=O)(=O)c3ccccn3)c2)C2CC2)=C1O` (stereo not drawn) [IX-52, 2-Pyridinesulfonamide, N-(3-(cyclopropyl-(4-hydroxy-2-oxo-5,5-dipropyl-2,5-dihydro-furan-3-yl)-methyl)-phenyl)-], for which the inhibition at 3.3 µM worked out at 110%, the inhibition at 10 µM turned out to be 104% and the inhibition at 30 µM is 99.9%.
In the case of `CCCC1(CCC)OC(=O)C(C(c2ccccc2)c2cccc(NS(=O)(=O)c3ccc(C#N)cc3)c2)=C1O` (stereo not drawn) [IX-47, Benzenesulfonamide, 4-cyano-N-(3-((5,5-dipropyl-4-hydroxy-2-oxo-2,5-dihydro-3-furanyl)-phenyl-methyl)phenyl)-], the inhibition at 3.3 µM is 93.5%, the inhibition at 10 µM amounted to 103% and the inhibition at 30 µM came out at 88.3%.
The matching figures for `CCC1(Cc2ccccc2)OC(=O)C(C(c2ccccc2)C(C)C)=C1O` (stereo not drawn) [IX-9, 2(5H)-Furanone, 5-ethyl-4-hydroxy-3-(2-methy1-1-phenylpropyl)-5-(phenyl-methyl)-]: 103%, 109% and 108%.
Turning to `CCCC1(CCC)OC(=O)C(C(CC(C)C)c2cccc(NS(=O)(=O)c3cn(C)cn3)c2)=C1O` (stereo not drawn) [IX-22], the inhibition at 3.3 µM was found to be 94.3%, the inhibition at 10 µM was 96.3% and the inhibition at 30 µM was found to be 94.5%.
The matching figures for `CCC1CCCCC12OC(=O)C(C(c1ccccc1)C1CC1)=C2O` (single isomer, unassigned) [IX-33, 1-Oxaspiro[4.5]dec-3-en-2-one, 3-(cyclopropylphenylmethyl)-4-hydroxy-6-ethyl-]: 99%, 99.4% and 97.6%.
Regarding `CCCC1(Cc2ccccc2)OC(=O)C(C(c2ccccc2)C2CC2)=C1O` (stereo not drawn) [DX-4, 2(5H)-Furanone, 3-(cyclopropylphenylmethyl)-4-hydroxy-5-(phenyl-methyl)-5-propyl-], the inhibition at 3.3 µM stood at 125%, the inhibition at 10 µM worked out at 128% and the inhibition at 30 µM stood at 116%.
`O=C1OC(Cc2ccccc2)(Cc2ccccc2)C(O)=C1C(c1ccccc1)C1CC1` (stereo not drawn) [DX-5, 2(5H)-Furanone, 3-(cyclopropylphenylmethyl)-4-hydroxy-5,5-bis(phenylmethyl)-]: the inhibition at 3.3 µM was 103%, the inhibition at 10 µM is 116% and the inhibition at 30 µM was found to be 103%.
As to `O=C1O/C(=C\c2ccccc2)C(O)=C1C(c1ccccc1)C1CC1` (stereo not drawn) [JX-2, 5-Benzylidene-3-(cyclopropyl-phenyl-methyl)-4-hydroxy-5H-furan-2-one], the inhibition at 3.3 µM was 56.9%, the inhibition at 10 µM worked out at 87.7% and the inhibition at 30 µM was determined as 103%.
For the compound `CCCC1(CCC)OC(=O)C(C(CC)c2cccc(N)c2)=C1O` (stereo not drawn) [IX-13, 2(5H)-Furanone, 3-(1-(3-aminophenyl)propyl)-4-hydroxy-4-hydroxy-5,5-dipropyl-], the inhibition at 3.3 µM turned out to be 59.9%, the inhibition at 10 µM was determined as 86.5% and the inhibition at 30 µM worked out at 89.4%.
Consider `CCCC(c1ccccc1)C1OC(=O)C(C(c2ccccc2)C2CC2)=C1O` (stereo not drawn) [GX-7, 2(5H)-Furanone, 3-(cyclopropylphenylmethyl)-4-hydroxy-5-(1-phenylbutyl)-], for which the inhibition at 3.3 µM is 92.7%, the inhibition at 10 µM came out at 103% and the inhibition at 30 µM stood at 102%.
`CCCC1(CCC)OC(=O)C(C(c2cccc(NS(=O)(=O)c3ccccc3)c2)C2CC2)=C1O` (stereo not drawn) [IX-15, Benzenesulfonamide, N-(3-(cyclopropyl(1,5-dihydro-4-hydroxy-2-oxo-5,5-dipropyl-3-furanyl)methyl)phenyl)-]: the inhibition at 0.12 µM (HIV-1 dose 0.12 μM) turned out to be 94%. Besides, the inhibition at 0.37 µM (HIV-1 dose 0.37 μM) was 102%. In addition, the inhibition at 1.1 µM (HIV-1 dose 1.1 μM) is 104%.
For the compound `CCC(C1=C(O)C(CCc2ccccc2)OC1=O)c1ccccc1` (stereo not drawn) [BX-16, 2(5H)-Furanone, 4-hydroxy-5-(2-phenylethyl)-3-(1-phenylpropyl)-], the inhibition at 3.3 µM stood at 41.4%, the inhibition at 10 µM was found to be 71.4% and the inhibition at 30 µM stood at 80.3%.
Take `O=C1OC(CCCc2ccccc2)C(O)=C1C(Cc1ccccc1)c1ccccc1` (stereo not drawn) [FX-1, 2(5H)-Furanone, 3-(1,2-diphenylethyl)-4-hydroxy-5-(3-phenylpropyl)-]: the inhibition at 3.3 µM came out at 15.5%, the inhibition at 10 µM turned out to be 35.4% and the inhibition at 30 µM amounted to 50.6%.
Regarding `O=C1OC(CCCc2ccccc2)(Cc2ccccc2)C(O)=C1C(c1ccccc1)C1CC1` (stereo not drawn) [DX-15, 2(5H)-Furanone, 3-(cyclopropylphenylmethyl)-4-hydroxy-5-(phenylmethyl)-5-(3--phenylpropyl)-], the inhibition at 3.3 µM came out at 108%, the inhibition at 10 µM is 116% and the inhibition at 30 µM amounted to 114%.
On to `Cn1cnc(S(=O)(=O)Nc2cccc(C(C3=C(O)C(Cc4ccccc4)(Cc4ccccc4)OC3=O)C(C)(C)C)c2)c1` (stereo not drawn) [IX-53], for which the inhibition at 3.3 µM is 102%, the inhibition at 10 µM turned out to be 104% and the inhibition at 30 µM came out at 92%.
As to `CCCC1(Cc2ccccc2)OC(=O)C(C(c2cccc(NS(=O)(=O)c3ccccc3)c2)C(C)C)=C1O` (stereo not drawn) [IX-27, Benzenesulfonamide, N-(3-(1-(2,5-dihydro-4-hydroxy-2-oxo-5--(phenylmethyl)-5-propyl-3-furanyl)-2-methylpropyl)phenyl)-], the inhibition at 3.3 µM worked out at 105%, the inhibition at 10 µM stood at 117% and the inhibition at 30 µM was determined as 106%.
As for `CC/C=C1\OC(=O)C(C(c2ccccc2)C2CC2)=C1O` (stereo not drawn) [JX-3, 3-(Cyclopropyl-phenyl-methyl)-4-hydroxy-5-propylidene-5H-furan-2-one], the inhibition at 3.3 µM turned out to be 43.2%, the inhibition at 10 µM was determined as 65.3% and the inhibition at 30 µM is 96.3%.
The matching figures for `CCCC1(CCc2ccccc2)OC(=O)C(C(c2ccccc2)C2CC2)=C1O` (stereo not drawn) [DX-8, 2(5H)-Furanone, 3-(cyclopropylphenylmethyl)-4-hydroxy-5-(2-phenyl-ethyl)-5-propyl-]: 114%, 109% and 103%.
